The target of the assay is PRS (prolyl-tRNA synthetase) protein, PRS portion of EPRS (Homo sapiens (Human), UniProt P07814). The assay can be described thus: PRS enzyme activity inhibition experiment ([3H]proline, liquid scintillation). In kind it is biochemical. The settings on record: purified PRS protein, 37° C. for 5 to 10 minutes. The essentials:
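Values are % inhibition or IC50 ranges (A ≤100 nM, B 100–500 nM, C ≥500 nM) from [3H]proline incorporation measured by liquid scintillation. PRS portion of human EPRS, reacted 5–10 min at 37 °C in pH 7.4 phosphate buffer containing 5 mM ATP and tRNA, compound at 1 μM.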

Drawing on US10981917B2, “Heterocyclic compound, its preparation method, and pharmaceutical composition comprising the same” (Daewoong Pharmaceutical Co., Ltd., priority 2017, dated 2021), this text covers IC50 for 21 compounds.

Broadly, the IC50 is the midpoint of a concentration-inhibition curve.

The structures appear in SMILES notation.

Sequence of PRS (prolyl-tRNA synthetase) protein, PRS portion of EPRS (P07814 1007-1512): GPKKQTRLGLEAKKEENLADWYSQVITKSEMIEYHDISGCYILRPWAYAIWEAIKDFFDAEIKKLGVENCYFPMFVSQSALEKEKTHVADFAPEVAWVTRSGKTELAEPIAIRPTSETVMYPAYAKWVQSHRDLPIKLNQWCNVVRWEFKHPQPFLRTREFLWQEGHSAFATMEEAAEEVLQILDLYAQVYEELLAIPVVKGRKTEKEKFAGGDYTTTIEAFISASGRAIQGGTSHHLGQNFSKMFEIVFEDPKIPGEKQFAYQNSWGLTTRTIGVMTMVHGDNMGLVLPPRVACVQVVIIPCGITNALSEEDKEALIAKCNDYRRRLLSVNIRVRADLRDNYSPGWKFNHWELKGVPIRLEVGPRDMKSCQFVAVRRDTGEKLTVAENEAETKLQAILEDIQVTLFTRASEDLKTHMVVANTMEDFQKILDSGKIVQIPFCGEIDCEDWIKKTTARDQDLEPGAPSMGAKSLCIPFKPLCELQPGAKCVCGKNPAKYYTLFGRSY

Take `O[C@H]1CCCN[C@@H]1CCCn1cnc2ccc(-c3ccccc3F)cc21` [Example 23, (2R,3S)-2-(3-(6-(2-fluorophenyl)-1H-benzo[d]imidazol-1-yl)propyl)piperidin-3-ol]: the IC50 fell in the range of 0.1 to 0.5 µM. `Cc1c(Cl)ccc2c1ncn2CC#C[C@H]1NCCC[C@@H]1O` [Example 227, (2R,3S)-2-(3-(5-chloro-4-methyl-1H-benzo[d]imidazol-1-yl)prop-1-yn-1-yl)piperidin-3-ol] returned an IC50 of no less than 0.5 µM. The result for `CCOC(=O)c1occc1-c1cc(Cl)cc2ncn(CCC[C@H]3NCCC[C@@H]3O)c12` [Example 110, ethyl 3-(5-chloro-1-(3-((2R,3S)-3-hydroxypiperidin-2-yl)propyl)-1H-benzo[d]imidazol-7-yl)furan-2-carboxylate] reads no less than 0.5 µM; that for `O[C@H]1CCCN[C@@H]1CCCn1cnc2ccc(-c3ccc(F)cc3)cc21` [Example 25, (2R,3S)-2-(3-(6-(4-fluorophenyl)-1H-benzo[d]imidazol-1-yl)propyl)piperidin-3-ol], no less than 0.5 µM. The same measure for `Cc1cc2c(cc1F)ncn2CCC[C@H]1NCCC[C@@H]1O` [Example 39, (2R,3S)-2-(3-(5-fluoro-6-methyl-1H-benzo[d]imidazol-1-yl)propyl)piperidin-3-ol]: 0.1 to 0.5 µM. Consider `O[C@H]1CCCN[C@@H]1CCCn1cnc2cc(Cl)cc(-c3cncc(F)c3)c21` [Example 87, (2R,3S)-2-(3-(5-chloro-7-(5-fluoropyridin-3-yl)-1H-benzo[d]imidazol-1-yl)propyl)piperidin-3-ol], for which the IC50 lay within 0.1 to 0.5 µM.

Take `O[C@H]1CCCN[C@@H]1CCCn1cnc2cc(F)c(F)cc21` [Example 52, (2R,3S)-2-(3-(5,6-difluoro-1H-benzo[d]imidazol-1-yl)propyl)piperidin-3-ol]: the IC50 was 0.1 to 0.5 µM.

For `O[C@H]1CCCN[C@@H]1CCCn1cnc2cc(Br)c(F)cc21` [Example 35, (2R,3S)-2-(3-(5-bromo-6-fluoro-1H-benzo[d]imidazol-1-yl)propyl)piperidin-3-ol], the IC50 lay within 0.1 to 0.5 µM. As for `O[C@H]1CCCN[C@@H]1/C=C/Cn1cnc2cc(C(F)(F)F)cc(Cl)c21` [Example 181, (2R,3S)-2-((E)-3-(7-chloro-5-(trifluoromethyl)-1H-benzo[d]imidazol-1-yl)prop-1-en-1-yl)piperidin-3-ol], the IC50 is 0.1 to 0.5 µM. The result for `Cc1cc(Cl)cc2c1ncn2C/C=C/[C@H]1NCCC[C@@H]1O` [Example 180, (2R,3S)-2-((E)-3-(6-chloro-4-methyl-1H-benzo[d]imidazol-1-yl)prop-1-en-1-yl)piperidin-3-ol] reads 0.1 to 0.5 µM; that for `O[C@H]1CCCN[C@@H]1CCCn1cnc2c(Cl)c(-c3cccc(Cl)c3)cnc21` [Example 134, (2R,3S)-2-(3-(7-chloro-6-(3-chlorophenyl)-3H-imidazo[4,5-b]pyridin-3-yl)propyl)piperidin-3-ol], no less than 0.5 µM. The same measure for `O[C@H]1CCCN[C@@H]1CCCn1cnc2c(Cl)c(Cl)ccc21` [Example 40, (2R,3S)-2-(3-(4,5-dichloro-1H-benzo[d]imidazol-1-yl)propyl)piperidin-3-ol]: no more than 0.1 µM; for `O=C(O)c1cn(C/C=C/[C@H]2NCCC[C@@H]2O)c2cc(Cl)ccc12` [Example 206, 6-chloro-1-((E)-3-((2R,3S)-3-hydroxypiperidin-2-yl)allyl)-1H-indole-3-carboxylic acid]: no less than 0.5 µM. The result for `Cn1c(=O)[nH]c(=O)c2c1ncn2CCC[C@H]1NCCC[C@@H]1O` [Example 163, 7-(3-((2R,3S)-3-hydroxypiperidin-2-yl)propyl)-3-methyl-1H-purine-2,6(3H,7H)-dione] reads no less than 0.5 µM; that for `Cn1cc(-c2cc(Cl)cc3ncn(CCC[C@H]4NCCC[C@@H]4O)c23)ccc1=O` [Example 88, 5-(5-chloro-1-(3-((2R,3S)-3-hydroxypiperidin-2-yl)propyl)-1H-benzo[d]imidazol-7-yl)-1-methylpyridin-2(1H)-one], no less than 0.5 µM. For `Oc1nc2cc(Cl)c(Cl)cc2n1CCC[C@H]1NCCC[C@@H]1O` [Example 144, 5,6-dichloro-1-(3-((2R,3S)-3-hydroxypiperidin-2-yl)propyl)-1H-benzo[d]imidazol-2-ol], the IC50 is no less than 0.5 µM.

On to `O[C@H]1CCCN[C@@H]1CCCn1cnc2cc(Br)cc(F)c21` [Example 73, (2R,3S)-2-(3-(5-bromo-7-fluoro-1H-benzo[d]imidazol-1-yl)propyl)piperidin-3-ol], for which the IC50 was in the range of 0.1 to 0.5 µM.

`O[C@H]1CCCN[C@@H]1CCCn1cnc2c(N3CCCC3)cccc21` [Example 18, (2R,3S)-2-(3-(4-(pyrrolidin-1-yl)-1H-benzo[d]imidazol-1-yl)propyl)piperidin-3-ol] gave an IC50 of no less than 0.5 µM. The compound `O[C@H]1CCCN[C@@H]1C#CCn1cnc2cc(Br)c(Br)cc21` [Example 228, (2R,3S)-2-(3-(5,6-dibromo-1H-benzo[d]imidazol-1-yl)prop-1-yn-1-yl)piperidin-3-ol] gave an IC50 of no less than 0.5 µM.

Take `O[C@H]1CCCN[C@@H]1/C=C/Cn1cnc2cc(Cl)cc(Cl)c21` [Example 182, (2R,3S)-2-((E)-3-(5,7-dichloro-1H-benzo[d]imidazol-1-yl)prop-1-en-1-yl)piperidin-3-ol]: the IC50 is no more than 0.1 µM. The same measure for `Cc1cscc1-c1cc(Cl)cc2ncn(CCC[C@H]3NCCC[C@@H]3O)c12` [Example 109, (2R,3S)-2-(3-(5-chloro-7-(4-methylthiophen-3-yl)-1H-benzo[d]imidazol-1-yl)propyl)piperidin-3-ol]: no more than 0.1 µM.
